This note sets out measurements from PubChem BioAssay (NCI).

Among the test systems are K-562 leukemia; NCI-H522 lung; ACHN renal; MCF7 breast; NCI-H23 lung; UACC-62 melanoma; UO-31 renal; U251 CNS; HCC-2998 colon; IGROV1 ovarian.
What all share (assay): NCI anticancer screen, dose series, 48 h

Several values for one entry are separate records, joined by “and”; a condition that tells them apart may be missing. Equal values may be shown once.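 Method: 48-hour compound exposure of cells in 96-well plates, five concentrations, linear interpolation of endpoints. At the GI50, growth is halved. Definition used: TGI = concentration required for complete inhibition of growth.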 Bounds are passed on as bounds.

Consider `COc1ccc2c(c1)C(=O)/C(=C/c1ccc(O)cc1)O2`, for which the GI50 was 2.58 µM with K-562 leukemia; 1.86 µM with NCI-H522 lung; 4 µM with ACHN renal; 4.93 µM with MCF7 breast; 13.9 µM with NCI-H23 lung; 14.7 µM in the assay on UACC-62 melanoma. For the same compound, the GI50 in the assay on UO-31 renal was 4.73 µM; in the assay on U251 CNS, 14.1 µM; with HCC-2998 colon, 17.3 µM; in the assay with IGROV1 ovarian, 6.87 µM. Also, the TGI is greater than 24.8 µM in the assay with K-562 leukemia; 3.75 µM in the assay on NCI-H522 lung; 10.9 µM with ACHN renal; 18.3 µM with MCF7 breast; 34.4 µM in the assay with NCI-H23 lung; 30.5 µM in the assay with UACC-62 melanoma. Besides, the TGI worked out at 9.39 µM in the assay on UO-31 renal, 27.2 µM with U251 CNS, 33.6 µM in the assay with HCC-2998 colon and 20.8 µM in the assay on IGROV1 ovarian.
For `Oc1ccc(Br)cc1C=NC1CCCCC1`, the TGI in the assay on K-562 leukemia, in the assay with NCI-H522 lung, in the assay with ACHN renal, in the assay with MCF7 breast, with NCI-H23 lung and in the assay on UACC-62 melanoma was greater than 100 µM each time. For the same compound, the TGI in the assay on UO-31 renal, in the assay on U251 CNS, in the assay on HCC-2998 colon and in the assay with IGROV1 ovarian was greater than 100 µM throughout.
`COc1ccc2c(c1)/C(=C\c1c(-c3ccccc3)nc3sccn13)C(=O)N2`: the GI50 with K-562 leukemia is 3.98 µM; with NCI-H522 lung it was 27 µM; with ACHN renal, 1.23 µM; with MCF7 breast, greater than 100 µM; with NCI-H23 lung, 1.97 µM; with UACC-62 melanoma, 3.52 µM. Besides, the GI50 in the assay on UO-31 renal was 7.29 µM; in the assay on U251 CNS, 5.88 µM; in the assay with IGROV1 ovarian, 13.9 µM. Moreover, the TGI was greater than 41.9 µM in the assay with K-562 leukemia; 67.3 µM in the assay with NCI-H522 lung; 14.7 µM in the assay on ACHN renal; greater than 100 µM with MCF7 breast; 6.85 µM with NCI-H23 lung; 15.6 µM in the assay with UACC-62 melanoma. In addition, the values for the TGI in the assay on UO-31 renal, with U251 CNS and in the assay with IGROV1 ovarian were greater than 43.7 µM, 27.9 µM and 52.3 µM, respectively.
For `COc1ccc(OC)c(-c2cc(-c3ccc(Cl)cc3)nn2-c2ccccc2)c1`, the GI50 in the assay on K-562 leukemia is 5.89 µM; in the assay with NCI-H522 lung, 12.6 µM; in the assay on ACHN renal, 46.2 µM; with MCF7 breast it was 6.89 µM; with NCI-H23 lung, 27.7 µM; with UACC-62 melanoma it was 11.2 µM. The GI50 with UO-31 renal was greater than 100 µM; with HCC-2998 colon it was 26.4 µM; with IGROV1 ovarian, 59.5 µM. For the same compound, the TGI in the assay with K-562 leukemia was 42.4 µM; with NCI-H522 lung it was greater than 100 µM; with ACHN renal, greater than 100 µM; with MCF7 breast, greater than 100 µM; in the assay on NCI-H23 lung it was greater than 100 µM; in the assay on UACC-62 melanoma, 55.3 µM. Moreover, the TGI is greater than 100 µM in the assay on UO-31 renal, 52.8 µM with HCC-2998 colon and greater than 100 µM in the assay with IGROV1 ovarian.
Consider `OCC#Cc1ccccc1C#Cc1ccc(C#Cc2ccccc2C#CCO)cc1`, for which the GI50 with K-562 leukemia was 34 µM; in the assay with NCI-H522 lung, 50.1 µM; with ACHN renal, 36.2 µM; in the assay with MCF7 breast, 26.3 µM; in the assay on NCI-H23 lung, 41.5 µM; in the assay on UACC-62 melanoma, 58.6 µM. Further, the GI50 was 36 µM in the assay with UO-31 renal, 34 µM with U251 CNS and 30.4 µM in the assay with IGROV1 ovarian. The TGI with K-562 leukemia, in the assay on NCI-H522 lung, in the assay with ACHN renal, with MCF7 breast, in the assay with NCI-H23 lung and in the assay on UACC-62 melanoma was greater than 100 µM each time. In addition, the TGI with UO-31 renal, in the assay with U251 CNS and with IGROV1 ovarian was greater than 100 µM in each case.
On to `Cc1cccc2c(=O)c3c(sc12)c(NCCCN)nc1ccccc13`, for which the GI50 with NCI-H522 lung was 1.57 µM; with ACHN renal, 1.39 µM; with MCF7 breast it was 1.11 µM; in the assay with NCI-H23 lung, 1.76 µM; in the assay on UACC-62 melanoma it was 1.6 µM; in the assay with UO-31 renal, 1.06 µM. The results for the GI50 in the assay with U251 CNS, with HCC-2998 colon and in the assay with IGROV1 ovarian were 1.51 µM, 1.67 µM and 1.18 µM, respectively. The TGI was determined as 3.34 µM with NCI-H522 lung; 2.71 µM in the assay with ACHN renal; 2.57 µM in the assay with MCF7 breast; 3.5 µM in the assay on NCI-H23 lung; 3.06 µM with UACC-62 melanoma; 2.29 µM in the assay with UO-31 renal. Further, the values for the TGI in the assay with U251 CNS, in the assay on HCC-2998 colon and in the assay on IGROV1 ovarian were 3.01 µM, 3.39 µM and 2.63 µM, respectively.
Turning to `COC(=O)[C@@H](C)C[C@H](Cc1ccccc1)NC(=O)c1csc([C@@H](C[C@H](C(C)C)N(C)C(=O)[C@@H](NC(=O)[C@H]2CCCCN2C)c2ccc(F)cc2)OC(C)=O)n1`, the TGI is 25 µM and 20.8 µM in the assay with K-562 leukemia; 25 µM and > 100 µM in the assay with ACHN renal; 25 µM and > 100 µM in the assay on MCF7 breast; 25 µM and > 100 µM with NCI-H23 lung; 25 µM in the assay with UACC-62 melanoma; 25 µM and > 100 µM in the assay on U251 CNS. The TGI in the assay on HCC-2998 colon was 25 µM and > 100 µM; in the assay on IGROV1 ovarian it was 25 µM and > 100 µM. In addition, the GI50 was 0.00259 µM and 0.0234 µM in the assay on NCI-H522 lung; 0.00229 µM and 0.0025 µM in the assay with MCF7 breast; 0.00331 µM and 0.0025 µM with UACC-62 melanoma.
For `CN1CCN(c2ccncc2S(=O)(=O)N2CCN(C)CC2)CC1`, the TGI in the assay with K-562 leukemia, in the assay on NCI-H522 lung, in the assay with ACHN renal, in the assay on MCF7 breast, in the assay with NCI-H23 lung and in the assay with UACC-62 melanoma was greater than 100 µM in each case. The TGI in the assay with UO-31 renal, in the assay on U251 CNS and with IGROV1 ovarian was greater than 100 µM throughout.
In the case of `[Mn+3].[O-][Cl+3]([O-])([O-])O.[O-]c1ccccc1C=NCCN1CC1.[O-]c1ccccc1C=NCCN1CC1`, the GI50 with K-562 leukemia is 20.5 µM; in the assay on NCI-H522 lung, 27.8 µM; with ACHN renal, 23.5 µM; in the assay with MCF7 breast it was 26.7 µM; in the assay on NCI-H23 lung it was 15.4 µM; in the assay on UACC-62 melanoma, 16.6 µM. The GI50 in the assay with UO-31 renal is greater than 100 µM; with U251 CNS it was 15.7 µM; in the assay on IGROV1 ovarian, 20.9 µM. The TGI is 42.4 µM in the assay with K-562 leukemia; greater than 100 µM with NCI-H522 lung; 72.9 µM in the assay on ACHN renal; greater than 100 µM in the assay on MCF7 breast; 52.8 µM with NCI-H23 lung; 33.6 µM in the assay on UACC-62 melanoma. Moreover, the TGI is greater than 100 µM in the assay with UO-31 renal, 38.6 µM in the assay on U251 CNS and 62.3 µM in the assay with IGROV1 ovarian.
